Measurements: ChEMBL document CHEMBL3616413, “Isolation and structure of vanitaracin A, a novel anti-hepatitis B virus compound from Talaromyces sp” (Bioorg Med Chem Lett, 2015)
pIC50: −log10 of the molar value.

Experiments:
[1] = Cytotoxicity against human HepG2 cells expressing hNTCP-C4 assessed as cell viability by MTT assay; type: cell-based; parameters: concentration or dose not given beside the values; settings: read-out: Activity
[2] = test system: Hepatitis B virus; assay: Antiviral activity against HBV infected in human HepG2 cells expressing hNTCP-C4 assessed as viral envelope surface protein secretion treated for 16 hrs followed by compound washout measured after 12 days by ELISA; type: functional, organism-based

Structure (SMILES)	pIC50 [2]	viability [1] [%]
CCC(=O)CC1(O)CC(=O)c2c(C)cc(O)cc2O1 (stereo not given)	4.28	> 90
CCC(C)CC(C)C(=O)OC1(C)C(=O)c2c(cc(O)c3c2C[C@@H](O)C[C@H]3C)C(C)(O)C1=O (stereo not given in full)	4.98	> 90
CCC(C)CC(C)C(=O)OC1(C)C(=O)Cc2cc(O)c3c(c2C1=O)C[C@@H](O)C[C@H]3C (stereo not given in full)	4.04	> 90

The remaining compounds from weak to strong by pIC50 [2], led by results:

pIC50 [2]	Structure (SMILES)	viability [1] [%]
4.14	CCC(=O)Cc1cc(=O)c2c(C)cc(O)cc2o1	> 90
4.29	Cc1cccc(O)c1C(=O)Cc1c(C=O)cc(O)c(C)c1O	> 90
